One series concerns SARS-CoV-2-Nluc. The experiment in a line: microbe, parasite or virus in culture. It is filed as cell-based.
Another series in a line: in vitro. The conditions noted are these: human.
Where [1] appears, read: read-out: EC50 (µM) Replicate 1.
The mark [2] stands for this setting: read-out: EC50 (µM) Replicate 2.
The mark [3] stands for this setting: Severe acute respiratory syndrome coronavirus 2, 48 h.
The mark [4] stands for this setting: Severe acute respiratory syndrome coronavirus 2, read-out: EC50 (µM) Replicate 1.
Setting [5] is: Severe acute respiratory syndrome coronavirus 2, read-out: EC50 (µM) Replicate 2.

Usually EC50 stands for the concentration needed to bring the measured effect to its halfway point.

Where two headings read alike, the source gives them in different places.

Compound `O=C(NCc1c(F)cc(F)cc1F)c1cn2c(c(O)c1=O)C(=O)N1[C@H]3CC[C@H](C3)O[C@@H]1C2` [Bictegravirt] returned a CC50 in the series on A549-hACE2 cells of over 50 µM. Also, the EC50 with SARS-CoV-2-Nluc (setting [1]) and with SARS-CoV-2-Nluc (setting [2]) was over 10 µM throughout.
With `CCOc1nc(N)nc2c1ncn2[C@@H]1O[C@@H]2COP(=O)(OC(C)C)O[C@H]2[C@@]1(C)F` (stereo partly shown) [PSI-352938], the CC50 in the series “in vitro” (CC50), in “in vitro” (CC50 (µM) Replicate 1) and in the series “in vitro” (CC50 (µM) Replicate 2) was over 50 µM each time. Further, the concentration for a half-maximal effect (EC50) with SARS-CoV-2-Nluc (setting [3]), in the series with SARS-CoV-2-Nluc (setting [4]) and in the series with SARS-CoV-2-Nluc (setting [5]) was over 10 µM each time.
For the compound `CC(C)OC(=O)[C@H](C)N[P@](=O)(OC[C@H]1O[C@@](C#N)(c2ccc3c(N)ncnn23)[C@](C)(O)[C@@H]1OC(=O)C(C)C)Oc1ccccc1` [GS-6620], the CC50 in “in vitro” (CC50), in the series “in vitro” (CC50 (µM) Replicate 1) and in “in vitro” (CC50 (µM) Replicate 2) was over 50 µM each time. Also, the EC50 in the series on SARS-CoV-2-Nluc (setting [3]), in the series on SARS-CoV-2-Nluc (setting [4]) and in the series with SARS-CoV-2-Nluc (setting [5]) was over 10 µM throughout.
`COC(=O)N[C@H](C(=O)N[C@@H](Cc1ccccc1)[C@@H](O)CN(Cc1ccc(-c2ccccn2)cc1)NC(=O)[C@@H](NC(=O)OC)C(C)(C)C)C(C)(C)C` [Atazanavir]: the CC50 in “in vitro” (CC50), in “in vitro” (CC50 (µM) Replicate 1) and in “in vitro” (CC50 (µM) Replicate 2) was over 50 µM in each case. In addition, the 50% effective concentration (EC50) with SARS-CoV-2-Nluc (setting [3]), in the series on SARS-CoV-2-Nluc (setting [4]) and in the series on SARS-CoV-2-Nluc (setting [5]) was over 10 µM in each case.
On to `Fc1ccccc1-c1nc2ccn(Cc3ccc(-c4ccc(C(F)(F)F)cc4C(F)(F)F)nn3)cc-2n1` [Tegobuvir], for which the values for the CC50 in “in vitro” (CC50), in “in vitro” (CC50 (µM) Replicate 1) and in “in vitro” (CC50 (µM) Replicate 2) were 17.9 ± 3.1 µM, 20 µM and 15.7 µM, respectively. The EC50 in the series on SARS-CoV-2-Nluc (setting [3]), in the series on SARS-CoV-2-Nluc (setting [4]) and with SARS-CoV-2-Nluc (setting [5]) was over 10 µM throughout.
In the case of `CC(C)OC(=O)[C@H](C)N[P@](=O)(OC[C@H]1O[C@@H](n2ccc(=O)[nH]c2=O)[C@](C)(F)[C@@H]1O)Oc1ccccc1` [Sofosbuvir], the CC50 in “in vitro” (CC50), in “in vitro” (CC50 (µM) Replicate 1) and in “in vitro” (CC50 (µM) Replicate 2) was over 50 µM each time. Further, the concentration giving a half-maximal response (EC50) with SARS-CoV-2-Nluc (setting [3]), in the series on SARS-CoV-2-Nluc (setting [4]) and in the series on SARS-CoV-2-Nluc (setting [5]) was over 10 µM throughout.
For the compound `C=CC(=O)N1CCC[C@@H](n2nc(-c3ccc(Oc4ccccc4)cc3)c3c(N)ncnc32)C1` [Ibrutinib], the CC50 in the series “in vitro” (CC50) was over 50 µM. In addition, in the series with SARS-CoV-2-Nluc (setting [3]), the EC50 is over 10 µM.
For the compound `N#C[C@@]1(c2ccc3c(N)ncnn23)O[C@H](CO)[C@@H](O)[C@H]1O` [GS-441524], the CC50 in “in vitro” (CC50), in the series “in vitro” (CC50 (µM) Replicate 1) and in the series “in vitro” (CC50 (µM) Replicate 2) was over 50 µM throughout. Moreover, the EC50 in the series with SARS-CoV-2-Nluc (setting [3]) was 0.869 ± 0.289 µM; in the series with SARS-CoV-2-Nluc (setting [4]) it was 1.07 µM; in the series on SARS-CoV-2-Nluc (setting [5]), 0.665 µM.
`CC(C)[C@@]1(C(=O)N[C@H]2CC(=O)O[C@]2(O)CF)CC(c2nccc3ccccc23)=NO1` [Nivocasan (GS-9450), Nivocasan] gave a CC50 with A549-hACE2 cells of over 50 µM. The EC50 with SARS-CoV-2-Nluc (read-out: EC50), in the series with SARS-CoV-2-Nluc (setting [1]) and in the series with SARS-CoV-2-Nluc (setting [2]) was over 10 µM each time.
As to `NC(=O)c1nc(F)c[nH]c1=O` [Favipiravir (T-705), Favipiravir], the CC50 in “in vitro” (CC50), in “in vitro” (CC50 (µM) Replicate 1) and in “in vitro” (CC50 (µM) Replicate 2) was over 50 µM each time. The concentration for a half-maximal effect (EC50) in the series with SARS-CoV-2-Nluc (setting [3]), in the series with SARS-CoV-2-Nluc (setting [4]) and with SARS-CoV-2-Nluc (setting [5]) was over 10 µM each time.
In the case of `CCOC(=O)/C=C/[C@H](C[C@@H]1CCNC1=O)NC(=O)[C@@H](CC(=O)[C@@H](NC(=O)c1cc(C)on1)C(C)C)Cc1ccc(F)cc1` [Rupintrivir], the CC50 in “in vitro” (CC50), in “in vitro” (CC50 (µM) Replicate 1) and in “in vitro” (CC50 (µM) Replicate 2) was over 50 µM in each case. Moreover, the “Selectivity index (SI) = CC50/EC50” value in the series on SARS-CoV-2-Nluc is over 26.7. Besides, the 50% effective concentration (EC50) in the series with SARS-CoV-2-Nluc (setting [3]) was 1.87 ± 0.47 µM; in the series on SARS-CoV-2-Nluc (setting [4]), 1.53 µM; in the series on SARS-CoV-2-Nluc (setting [5]) it was 2.2 µM.
`COC[C@H]1C[C@@H](c2ncc(-c3ccc4c(c3)COc3cc5c(ccc6nc([C@@H]7CC[C@H](C)N7C(=O)[C@@H](NC(=O)OC)C(C)C)[nH]c65)cc3-4)[nH]2)N(C(=O)[C@H](NC(=O)OC)c2ccccc2)C1` [Velpatasvir]: the CC50 in the series “in vitro” (CC50), in “in vitro” (CC50 (µM) Replicate 1) and in “in vitro” (CC50 (µM) Replicate 2) was over 50 µM each time. Also, the EC50 with SARS-CoV-2-Nluc (setting [3]), in the series with SARS-CoV-2-Nluc (setting [4]) and with SARS-CoV-2-Nluc (setting [5]) was over 10 µM throughout.
With `Nc1ccn([C@@H]2O[C@@](CO)(CCl)[C@@H](O)[C@H]2F)c(=O)n1` [ALS-8112], the CC50 in “in vitro” (CC50), in “in vitro” (CC50 (µM) Replicate 1) and in “in vitro” (CC50 (µM) Replicate 2) was over 50 µM each time. The half-maximal effective concentration (EC50) in the series with SARS-CoV-2-Nluc (setting [3]), in the series with SARS-CoV-2-Nluc (setting [4]) and with SARS-CoV-2-Nluc (setting [5]) was over 10 µM throughout.
For `CC(C)c1nc(CN(C)C(=O)N[C@@H](CCN2CCOCC2)C(=O)N[C@H](CC[C@H](Cc2ccccc2)NC(=O)OCc2cncs2)Cc2ccccc2)cs1` [Cobicistat], the results for the CC50 in the series “in vitro” (CC50), in “in vitro” (CC50 (µM) Replicate 1) and in the series “in vitro” (CC50 (µM) Replicate 2) were 47.3 ± 2.5 µM, 45.6 µM and 49.1 µM, respectively. Moreover, the half-maximal effective concentration (EC50) in the series on SARS-CoV-2-Nluc was determined as 2.74 ± 0.2 µM; in the series with SARS-CoV-2-Nluc (setting [3]), 2.7 µM; in the series on SARS-CoV-2-Nluc (setting [4]), 2.6 µM; in the series with SARS-CoV-2-Nluc (setting [5]), 2.88 µM. Also, the “Selectivity index (SI) = CC50/EC50” value in the series on SARS-CoV-2-Nluc was determined as 17.3.
Consider `CC[C@@H]1C[C@]1(NC(=O)[C@@H]1C[C@@H](Oc2cc(-c3csc(NC(C)C)n3)nc3c(Cl)c(OCCN4CCOCC4)ccc23)CN1C(=O)[C@@H](NC(=O)O[C@@H]1C[C@@H]2C[C@@H]2C1)C(C)(C)C)C(=O)O` [GS-9451], for which the CC50 in the series “in vitro” (CC50), in “in vitro” (CC50 (µM) Replicate 1) and in “in vitro” (CC50 (µM) Replicate 2) was over 50 µM each time. Moreover, the concentration giving a half-maximal response (EC50) in the series on SARS-CoV-2-Nluc (setting [3]), with SARS-CoV-2-Nluc (setting [4]) and in the series on SARS-CoV-2-Nluc (setting [5]) was over 10 µM in each case.
For the compound `C=CC(=O)N1CCC[C@@H](n2nc(-c3ccc(Oc4ccccc4)cc3)c3c(N)ncnc32)C1` [Ibrutinibj], in the series with A549-hACE2 cells, the CC50 is over 50 µM. The half-maximal effective concentration (EC50) with SARS-CoV-2-Nluc (setting [1]) and in the series on SARS-CoV-2-Nluc (setting [2]) was over 10 µM in each case.
Turning to `CCC(CC)O[C@@H]1C=C(C(=O)O)C[C@H](N)[C@H]1NC(C)=O` [Oseltamivir carboxylate], the CC50 in the series “in vitro” (CC50), in the series “in vitro” (CC50 (µM) Replicate 1) and in the series “in vitro” (CC50 (µM) Replicate 2) was over 50 µM in each case. The concentration for a half-maximal effect (EC50) with SARS-CoV-2-Nluc (setting [3]), with SARS-CoV-2-Nluc (setting [4]) and in the series with SARS-CoV-2-Nluc (setting [5]) was over 10 µM each time.
On to `NC(=O)c1ncn([C@@H]2O[C@H](CO)[C@@H](O)[C@H]2O)n1` [Ribavirin], for which the CC50 in “in vitro” (CC50), in “in vitro” (CC50 (µM) Replicate 1) and in the series “in vitro” (CC50 (µM) Replicate 2) was over 50 µM throughout. The EC50 in the series on SARS-CoV-2-Nluc (setting [3]), with SARS-CoV-2-Nluc (setting [4]) and in the series on SARS-CoV-2-Nluc (setting [5]) was over 10 µM in each case.
For the compound `C[C@@]1(O)[C@H](O)[C@@H](CO)O[C@H]1n1ccc2c(N)ncnc21` [MK-0608], the CC50 in the series on A549-hACE2 cells is over 50 µM. Also, the concentration giving a half-maximal response (EC50) in the series with SARS-CoV-2-Nluc (read-out: EC50), with SARS-CoV-2-Nluc (setting [1]) and in the series on SARS-CoV-2-Nluc (setting [2]) was over 10 µM each time.
Turning to `COc1ccc2c(O[C@@H]3C[C@H]4C(=O)N[C@]5(P(=O)(O)Cc6c(F)cccc6F)C[C@H]5CCCCCCC[C@H](NC(=O)OC5CCCC5)C(=O)N4C3)cc(-c3csc(NC(C)C)n3)nc2c1Cl` [GS-9256], the CC50 was 31.8 ± 10.9 µM in “in vitro” (CC50), 39.5 µM in the series “in vitro” (CC50 (µM) Replicate 1) and 24.1 µM in the series “in vitro” (CC50 (µM) Replicate 2). In addition, the concentration for a half-maximal effect (EC50) with SARS-CoV-2-Nluc (setting [3]), in the series on SARS-CoV-2-Nluc (setting [4]) and in the series on SARS-CoV-2-Nluc (setting [5]) was over 10 µM throughout.
In the case of `Nc1ccn(C[C@@H](CO)OCP(=O)(O)O)c(=O)n1` [Cidofovir], the CC50 in the series “in vitro” (CC50), in the series “in vitro” (CC50 (µM) Replicate 1) and in the series “in vitro” (CC50 (µM) Replicate 2) was over 50 µM in each case. In addition, the EC50 in the series on SARS-CoV-2-Nluc (setting [3]), in the series with SARS-CoV-2-Nluc (setting [4]) and with SARS-CoV-2-Nluc (setting [5]) was over 10 µM throughout.

The record behind these values is article PMC7567097, “A nanoluciferase SARS-CoV-2 for rapid neutralization testing and screening of anti-infective drugs for COVID-19” (Nature Communications, 2020).
